Assay: Hydrolytic stability: hydrolysis of the 19F fluorosilane to the silanol at physiological pH (7.0)
Type: physicochemical
Settings: hydrolytic halflife of the 19F compound at pH 7.0, calculated from the kinetics
Procedure: The time dependent degree of hydrolysis of compounds of formula I in which X is a fluorine atom of isotope 19 to compounds of formula I in which X is a hydroxy group was determined at physiological pH (7.0). From the kinetics the hydrolytic halflife (t1/2) measured in hours [h] of compounds of formula I in which X is a fluorine atom of isotope 19 were calculated (Table 1, column 2).
The ratio of the hydrolytic halflifes of compounds of formula I in which X is a fluorine atom of isotope 19 and the radioactive halflife of the 18-F isotope (1.83 hours) is defined as relative stability (Table 1, column 3).
After 6 hours 90% of the 18-F isotope have been decayed.
Compounds of formula I in which X is a fluorine atom of isotope 18 are considered as useful for PET applications if the relative stability of their analogs bearing a fluorine atom of isotope 19 exceed a factor of four and if at least 50% of these compounds remain intact after 6 hours under hydrolytic conditions at pH 7.

Row | SMILES | t1/2 [h]
1 | CC(C)[Si](F)(c1cccc(CC(=O)O)c1)C(C)C [Compound 5e - F, [3-(Fluoro-diisopropyl-silanyl)-phenyl]-acetic acid] | 20.0
2 | CC(C)[Si](F)(c1ccc(CCCO)cc1)C(C)C [Compound 4c - F, 3-[4-(Fluoro-diisopropyl-silanyl)-phenyl]-propan-1-ol] | > 100.0
3 | CC(C)C[Si](F)(CC(C)C)c1ccc(C(=O)O)cc1 [Compound 5g-F, 4-(Fluoro-diisobutyl-silanyl)-benzoic acid] | 3.5
4 | CC(C)[Si](F)(c1ccc(CCC(=O)O)cc1)C(C)C [Compound 5c - F, 3-[4-(Fluoro-diisopropyl-silanyl)-phenyl]-propionic acid] | 59.0
5 | CC(C)[Si](F)(c1cccc(CCOC2CCCCO2)c1)C(C)C (racemic) [Compound 3e - F, (RS)-Fluoro-diisopropyl-{3-[2-(tetrahydro-pyran-2-yloxy)-ethyl]-phenyl}-silane] | > 100.0
6 | CC(C)[Si](F)(c1cccc(CCCOC2CCCCO2)c1)C(C)C (racemic) [Compound 3d - F, (RS)-Fluoro-diisopropyl-{3-[3-(tetrahydro-pyran-2-yloxy)-propyl]-phenyl}-silane] | > 100.0
7 | F[Si](c1ccccc1)(c1ccccc1)c1ccc(CCOC2CCCCO2)cc1 (racemic) [Compound 3f-F, (RS)-Fluoro-diphenyl-{4-[2-(tetrahydro-pyran-2-yloxy)-ethyl]-phenyl}-silane] | 0.07
8 | CC(C)C[Si](F)(CC(C)C)c1ccc(CC(=O)O)cc1 [Compound 5h-F, [4-(Fluoro-diisobutyl-silanyl)-phenyl]-acetic acid] | 8.7
9 | CC(C)C[Si](F)(CC(C)C)c1ccc(COC2CCCCO2)cc1 (racemic) [Compound 3g-F, (RS)-Fluoro-diisobutyl-[4-(tetrahydro-pyran-2-yloxymethyl)-phenyl]-silane] | 8.1
